{
  "source": "patent US9127001B2",
  "about": "“Substituted 4,5,6,7-tetrahydro-1H-pyrazolo[4,3-c]pyridines, their use as medicament, and pharmaceutical preparations comprising them” (Sanofi, priority 2011, dated 2015)",
  "data": [
    {"biological_target": "Human TASK-1 channels (Homo sapiens (Human), UniProt O14649)", "sequence (O14649 whole entry)": "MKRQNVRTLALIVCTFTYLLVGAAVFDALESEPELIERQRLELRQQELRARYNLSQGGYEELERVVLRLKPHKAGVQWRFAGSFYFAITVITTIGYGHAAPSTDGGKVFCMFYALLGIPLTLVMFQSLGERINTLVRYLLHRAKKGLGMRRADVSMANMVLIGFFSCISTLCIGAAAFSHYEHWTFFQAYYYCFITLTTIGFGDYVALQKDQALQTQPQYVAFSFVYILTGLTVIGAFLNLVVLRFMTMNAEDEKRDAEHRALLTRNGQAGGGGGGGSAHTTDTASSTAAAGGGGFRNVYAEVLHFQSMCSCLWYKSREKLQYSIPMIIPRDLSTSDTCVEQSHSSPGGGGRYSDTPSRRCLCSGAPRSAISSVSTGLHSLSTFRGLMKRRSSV", "experiment": "Activity on the TASK-1 channel in Xenopus oocytes (two-microelectrode voltage clamp)", "assay_type": "cell-based", "conditions": "not given", "method": "(§1) Human TASK-1 channels were expressed in Xenopus oocytes. For this purpose, oocytes were isolated from Xenopus laevis and defoliculated. Subsequently, TASK-1-encoding RNA synthesized in vitro was injected into oocytes. […] Data were acquired and analyzed using a TEC-10cx amplifier (NPI Electronic, Tamm, Germany) connected to an ITC-16 interface (Instrutech Corp., Long Island, USA) and Pulse software (HEKA Elektronik, Lambrecht, Germany). […] Oocytes were continuously superfused with ND96 buffer containing: NaCl 96 mM, KCl 2 mM, CaCl2 1.8 mM, MgCl2 1 mM, HEPES 5 mM (pH adjusted to 7.4 with NaOH). All experiments were performed at room temperature.\n(§2) Test substances were consecutively added to the bath solution at rising concentrations. […] IC50 values were obtained by fitting the data to the general dose-response equation.", "units": {"inhibition at 5 µM": "%"}, "values": [
      {"molecule": "COc1ccccc1Cn1nc(-c2cccc(C(F)(F)F)c2)c2c1CCN(C(C)=O)C2", "note": "[Example 6bc, 1-[1-(2-Methoxy-benzyl)-3-(3-trifluoromethyl-phenyl)-1,4,6,7-tetrahydro-pyrazolo[4,3-c]pyridin-5-yl]-ethanone]", "inhibition at 5 µM": 70},
      {"molecule": "CC(c1ccc(F)cc1)n1nc(-c2ccc(F)cc2)c2c1CCN(C(=O)NC(C)(C)C)C2", "note": "(single isomer, unassigned) [Example 11f, 3-(4-Fluoro-phenyl)-1-[1-(4-fluoro-phenyl)-ethyl]-1,4,6,7-tetrahydro-pyrazolo[4,3-c]pyridine-5-carboxylic acid tert-butylamide]", "inhibition at 5 µM": 58},
      {"molecule": "CN(CCO)C(=O)N1CCc2c(c(-c3cccc(C#N)c3)nn2Cc2ccc(F)cc2F)C1", "note": "[Example 12e, 3-(3-Cyano-phenyl)-1-(2,4-difluoro-benzyl)-1,4,6,7-tetrahydro-pyrazolo[4,3-c]pyridine-5-carboxylic acid (2-hydroxy-ethyl)-methyl-amide]", "inhibition at 5 µM": 65},
      {"molecule": "CC(C)NC(=O)N1CCc2c(c(-c3cccc(C#N)c3)nn2Cc2ccc(F)cc2F)C1", "note": "[Example 11a, 3-(3-Cyano-phenyl)-1-(2,4-difluoro-benzyl)-1,4,6,7-tetrahydro-pyrazolo[4,3-c]pyridine-5-carboxylic acid isopropylamide]", "inhibition at 5 µM": 76},
      {"molecule": "CC(=O)N1CCc2c(c(-c3cccc(C)c3)nn2Cc2cnccc2Cl)C1", "note": "[Example 6r, 1-[1-(4-Chloro-pyridin-3-ylmethyl)-3-m-tolyl-1,4,6,7-tetrahydro-pyrazolo[4,3-c]pyridin-5-yl]-ethanone]", "inhibition at 5 µM": 79},
      {"molecule": "COc1ccnc(-c2nn(Cc3ccc(F)cc3F)c3c2CN(C(C)=O)CC3)c1", "note": "[Example 6ac, 1-[1-(2,4-Difluoro-benzyl)-3-(4-methoxy-pyridin-2-yl)-1,4,6,7-tetrahydro-pyrazolo[4,3-c]pyridin-5-yl]-ethanone]", "inhibition at 5 µM": 80},
      {"molecule": "CCNC(=O)N1CCc2c(c(-c3cccc(C#N)c3)nn2Cc2ccc(F)cc2F)C1", "note": "[Example 11h, 3-(3-Cyano-phenyl)-1-(2,4-difluoro-benzyl)-1,4,6,7-tetrahydro-pyrazolo[4,3-c]pyridine-5-carboxylic acid ethylamide]", "inhibition at 5 µM": 91},
      {"molecule": "COc1cccc(-c2nn(Cc3ccc(F)cc3F)c3c2CN(C(C)=O)CC3)n1", "note": "[Example 6y, 1-[1-(2,4-Difluoro-benzyl)-3-(6-methoxy-pyridin-2-yl)-1,4,6,7-tetrahydro-pyrazolo[4,3-c]pyridin-5-yl]-ethanone]", "inhibition at 5 µM": 86},
      {"molecule": "CC(=O)N1CCc2c(c(-c3ncccc3C)nn2Cc2ccc(F)cc2F)C1", "note": "[Example 6ab, 1-[1-(2,4-Difluoro-benzyl)-3-(3-methyl-pyridin-2-yl)-1,4,6,7-tetrahydro-pyrazolo[4,3-c]pyridin-5-yl]-ethanone]", "inhibition at 5 µM": 76},
      {"molecule": "CC(=O)N1CCc2c(c(-c3cccs3)nn2Cc2ccc(F)cc2F)C1", "note": "[Example 6af, 1-[1-(2,4-Difluoro-benzyl)-3-thiophen-2-yl-1,4,6,7-tetrahydro-pyrazolo[4,3-c]pyridin-5-yl]-ethanone]", "inhibition at 5 µM": 72},
      {"molecule": "CC(=O)N1CCc2c(c(-c3cccc(C(F)(F)F)c3)nn2Cc2csc(C)n2)C1", "note": "[Example 6ad, 1-[1-(2-Methyl-thiazol-4-ylmethyl)-3-(3-trifluoromethyl-phenyl)-1,4,6,7-tetrahydro-pyrazolo[4,3-c]pyridin-5-yl]-ethanone]", "inhibition at 5 µM": 86},
      {"molecule": "CC(=O)N1CCc2c(c(-c3cccc(C)c3)nn2Cc2ccc(Cl)s2)C1", "note": "[Example 6ag, 1-[1-(5-Chloro-thiophen-2-ylmethyl)-3-m-tolyl-1,4,6,7-tetrahydro-pyrazolo[4,3-c]pyridin-5-yl]-ethanone]", "inhibition at 5 µM": 75},
      {"molecule": "CC(=O)N1CCc2c(c(-c3cccc(C#N)c3)nn2Cc2cc(F)ccc2F)C1", "note": "[Example 6ay, 3-[5-Acetyl-1-(2,5-difluoro-benzyl)-4,5,6,7-tetrahydro-1H-pyrazolo[4,3-c]pyridin-3-yl]-benzonitrile]", "inhibition at 5 µM": 86}
    ]},
    {"biological_target": "Human TASK-1 channels (Homo sapiens (Human), UniProt O14649)", "experiment": "Activity on the TASK-1 channel in Xenopus oocytes (two-microelectrode voltage clamp)", "assay_type": "cell-based", "conditions": "human TASK-1 expressed in Xenopus oocytes, currents during pulses to 40 mV, room temperature", "method": "as §1, §2", "units": {"IC50": "nM"}, "values": [
      {"molecule": "CC(=O)N1CCc2c(c(-c3cccc(OC(F)(F)F)c3)nn2Cc2ccc(F)cc2F)C1", "note": "[Example 6ap, 1-[1-(2,4-Difluoro-benzyl)-3-(3-trifluoromethoxy-phenyl)-1,4,6,7-tetrahydro-pyrazolo[4,3-c]pyridin-5-yl]-ethanone]", "IC50": 285},
      {"molecule": "CC(C)(C)C(=O)N1CCc2c(c(-c3cccc(C#N)c3)nn2Cc2ccc(F)cc2F)C1", "note": "[Example 8o, 3-[1-(2,4-Difluoro-benzyl)-5-(2,2-dimethyl-propionyl)-4,5,6,7-tetrahydro-1H-pyrazolo[4,3-c]pyridin-3-yl]-benzonitrile]", "IC50": 131},
      {"molecule": "CC(=O)N1CCc2c(c(-c3cc(C(F)(F)F)ccn3)nn2Cc2ccc(F)cc2F)C1", "note": "[Example 6h, 1-[1-(2,4-Difluoro-benzyl)-3-(4-trifluoromethyl-pyridin-2-yl)-1,4,6,7-tetrahydro-pyrazolo[4,3-c]pyridin-5-yl]-ethanone]", "IC50": 190},
      {"molecule": "CC(=O)N1CCc2c(c(-c3cccc(C#N)c3)nn2C(C)c2ccc(F)cc2)C1", "note": "(centres unmarked) [Example 6an, 3-{5-Acetyl-1-[1-(4-fluoro-phenyl)-ethyl]-4,5,6,7-tetrahydro-1H-pyrazolo[4,3-c]pyridin-3-yl}-benzonitrile]", "IC50": 187},
      {"molecule": "CC1(C(=O)N2CCc3c(c(-c4cccc(C#N)c4)nn3Cc3ccc(F)cc3F)C2)COC1", "note": "[Example 8a, 3-[1-(2,4-Difluoro-benzyl)-5-(3-methyl-oxetane-3-carbonyl)-4,5,6,7-tetrahydro-1H-pyrazolo[4,3-c]pyridin-3-yl]-benzonitrile]", "IC50": 276},
      {"molecule": "O=C(c1ccccc1)N1CCc2c(c(-c3ccc(F)cc3)nn2Cc2ccccc2)C1", "note": "[Example 8h, [1-Benzyl-3-(4-fluoro-phenyl)-1,4,6,7-tetrahydro-pyrazolo[4,3-c]pyridin-5-yl]-phenyl-methanone]", "IC50": 2400},
      {"molecule": "CC(c1ccc(F)cc1)n1nc(-c2ccc(F)cc2)c2c1CCN(C(=O)N1CC[C@H](O)C1)C2", "note": "(single isomer, unassigned) [Example 12c]", "IC50": 734},
      {"molecule": "CC(=O)N1CCc2c(c(-c3cc(Br)ccn3)nn2Cc2ccc(F)cc2F)C1", "note": "[Example 6j, 1-[3-(4-Bromo-pyridin-2-yl)-1-(2,4-difluoro-benzyl)-1,4,6,7-tetrahydro-pyrazolo[4,3-c]pyridin-5-yl]-ethanone]", "IC50": "< 10000"},
      {"molecule": "CC(=O)N1CCc2c(c(-c3cccc(OC(F)(F)F)c3)nn2C(C)c2ccc(F)cc2)C1", "note": "(centres unmarked) [Example 6aw, 1-[1-[1-(4-Fluoro-phenyl)-ethyl]-3-(3-trifluoromethoxy-phenyl)-1,4,6,7-tetrahydro-pyrazolo[4,3-c]pyridin-5-yl]-ethanone]", "IC50": 947},
      {"molecule": "N#Cc1cccc(-c2nn(Cc3ccc(F)cc3F)c3c2CN(C(=O)CO)CC3)c1", "note": "[Example 14a, 3-[1-(2,4-Difluoro-benzyl)-5-(2-hydroxy-acetyl)-4,5,6,7-tetrahydro-1H-pyrazolo[4,3-c]pyridin-3-yl]-benzonitrile]", "IC50": "< 10000"},
      {"molecule": "Cn1ccc(C(=O)N2CCc3c(c(-c4cccc(C#N)c4)nn3Cc3ccc(F)cc3F)C2)n1", "note": "[Example 8x, 3-[1-(2,4-Difluoro-benzyl)-5-(1-methyl-1H-pyrazole-3-carbonyl)-4,5,6,7-tetrahydro-1H-pyrazolo[4,3-c]pyridin-3-yl]-benzonitrile]", "IC50": 1880},
      {"molecule": "CC(=O)N1C2CCC1c1c(-c3cccc(C#N)c3)nn(Cc3ccc(F)cc3F)c1C2", "note": "(centres unmarked) [Example 6n, 3-[11-Acetyl-5-(2,4-difluoro-benzyl)-4,5,11-triaza-tricyclo[6.2.1.02,6]undeca-2(6),3-dien-3-yl]-benzonitrile]", "IC50": 91},
      {"molecule": "CC(=O)N1CCc2c(c(-c3ccc(F)cc3)nn2C(C)c2ccc(F)cc2)C1", "note": "(single isomer, unassigned; (+)) [Example 6be, (+)-1-{3-(4-Fluoro-phenyl)-1-[1-(4-fluoro-phenyl)-ethyl]-1,4,6,7-tetrahydro-pyrazolo[4,3-c]pyridin-5-yl}-ethanone]", "IC50": 500},
      {"molecule": "CC(=O)N1CCc2c(c(-c3cccc(C(F)(F)F)c3)nn2Cc2cnccc2Cl)C1", "note": "[Example 6c, 1-[1-(4-Chloro-pyridin-3-ylmethyl)-3-(3-trifluoromethyl-phenyl)-1,4,6,7-tetrahydro-pyrazolo[4,3-c]pyridin-5-yl]-ethanone]", "IC50": 215},
      {"molecule": "CC(=O)N1CCc2c(c(-c3ccc(C(F)(F)F)cc3)nn2Cc2ccc(F)cc2F)C1", "note": "[Example 6bk, 1-[1-(2,4-Difluoro-benzyl)-3-(4-trifluoromethyl-phenyl)-1,4,6,7-tetrahydro-pyrazolo[4,3-c]pyridin-5-yl]-ethanone]", "IC50": 1150},
      {"molecule": "CS(=O)(=O)c1ccc(C(=O)N2CCc3c(c(-c4cccc(C#N)c4)nn3Cc3ccc(F)cc3F)C2)cc1", "note": "[Example 8k, 3-[1-(2,4-Difluoro-benzyl)-5-(4-methanesulfonyl-benzoyl)-4,5,6,7-tetrahydro-1H-pyrazolo[4,3-c]pyridin-3-yl]-benzonitrile]", "IC50": 906},
      {"molecule": "N#Cc1cccc(-c2nn(Cc3ccc(F)cc3F)c3c2CN(C(=O)C2CCOCC2)CC3)c1", "note": "[Example 8l, 3-[1-(2,4-Difluoro-benzyl)-5-(tetra-hydro-pyran-4-carbonyl)-4,5,6,7-tetrahydro-1H-pyrazolo[4,3-c]pyridin-3-yl]-benzonitrile]", "IC50": 585},
      {"molecule": "CC(=O)N1CCc2c(c(-c3ccc(F)cc3)nn2Cc2ccc(Cl)c(F)c2)C1", "note": "[Example 6bg, 1-[1-(4-Chloro-3-fluoro-benzyl)-3-(4-fluoro-phenyl)-1,4,6,7-tetrahydro-pyrazolo[4,3-c]pyridin-5-yl]-ethanone]", "IC50": 398},
      {"molecule": "CC(=O)N1CCc2c(c(-c3ccc(F)cc3)nn2C(C)c2ccc(F)cc2)C1", "note": "(centres unmarked) [Example 6ar, 1-{3-(4-Fluoro-phenyl)-1-[1-(4-fluoro-phenyl)-ethyl]-1,4,6,7-tetrahydro-pyrazolo[4,3-c]pyridin-5-yl}-ethanone]", "IC50": 552}
    ]}
  ]
}
